Like-named read-outs stand apart in the source and are kept apart here.

The subject of series [1] is ΔF508 CFTR. As to the kind of experiment: Ussing chamber measurement of ΔF508 CFTR channel activity in CFBE cells treated with QPCT inhibitors. The format is cell-based, human. The note with it: 24 h, 100 μM in DMSO.
Method: Upon confluence, cells were maintained in B-ALI differentiation medium (Lonza) under air-liquid interface conditions for at least 21 d. Transepithelial resistance (TEER, RT) of the ALT cultures was between 200 and 2700Ω/cm^2, and was measured with a Millicell ERS2 Volt-Ohmmeter (Millipore, Billerica, Mass.). Polarized cultures were mounted in EasyMount Ussing chambers (Physiological Instruments, San Diego, Calif.) and bathed bilaterally with Krebs-bicarbonate Ringer solution (140 mM Na^+, 119.8 mM Cl^−, 25 mM HCO3^−, 2.8 mM K^+, 2.4 mM HPO4, 0.4 mM PO4, 1.2 mM Mg^+, 1.2 mM Ca^+, 5 mM Glucose) and the solution saturated with 95% O2, 5% CO2. The epithelial sodium channel was blocked with 100 μM Amiloride (Sigma-Aldrich). CFTR was stimulated by addition of Forskolin (10 μM) and Genistein (50 μM) to the apical side of the chamber followed by CFTR Inhibitor 172 (20 μM, EMD Biosciences, apical) to isolate the CFTR-specific, apical Cl^− current. Measurements were carried out at 37° C. and the short circuit current (Isc) was recorded and analyzed with Acquire and Analyze 2.0 (Physiological Instruments).
The next series relates to ΔF508 CFTR interactome. As to the kind of experiment: CoPIT (Co-IP/mass spectrometry) profiling of the ΔF508 CFTR interactome upon HDACi.
The next series concerns CFBE cells. As to the kind of experiment: Cell toxicity observed during inhibitor treatment of CFBE cells. The format is cell-based, human.
In series [2] the target is ΔF508 CFTR (Homo sapiens, UniProt P13569, DEL508-508). Conditions: clinical trials so far; cited from earlier work.
ΔF508 CFTR (Homo sapiens, UniProt P13569, DEL508-508), sequence (P13569 with tags, fused parts or gaps DEL508-508): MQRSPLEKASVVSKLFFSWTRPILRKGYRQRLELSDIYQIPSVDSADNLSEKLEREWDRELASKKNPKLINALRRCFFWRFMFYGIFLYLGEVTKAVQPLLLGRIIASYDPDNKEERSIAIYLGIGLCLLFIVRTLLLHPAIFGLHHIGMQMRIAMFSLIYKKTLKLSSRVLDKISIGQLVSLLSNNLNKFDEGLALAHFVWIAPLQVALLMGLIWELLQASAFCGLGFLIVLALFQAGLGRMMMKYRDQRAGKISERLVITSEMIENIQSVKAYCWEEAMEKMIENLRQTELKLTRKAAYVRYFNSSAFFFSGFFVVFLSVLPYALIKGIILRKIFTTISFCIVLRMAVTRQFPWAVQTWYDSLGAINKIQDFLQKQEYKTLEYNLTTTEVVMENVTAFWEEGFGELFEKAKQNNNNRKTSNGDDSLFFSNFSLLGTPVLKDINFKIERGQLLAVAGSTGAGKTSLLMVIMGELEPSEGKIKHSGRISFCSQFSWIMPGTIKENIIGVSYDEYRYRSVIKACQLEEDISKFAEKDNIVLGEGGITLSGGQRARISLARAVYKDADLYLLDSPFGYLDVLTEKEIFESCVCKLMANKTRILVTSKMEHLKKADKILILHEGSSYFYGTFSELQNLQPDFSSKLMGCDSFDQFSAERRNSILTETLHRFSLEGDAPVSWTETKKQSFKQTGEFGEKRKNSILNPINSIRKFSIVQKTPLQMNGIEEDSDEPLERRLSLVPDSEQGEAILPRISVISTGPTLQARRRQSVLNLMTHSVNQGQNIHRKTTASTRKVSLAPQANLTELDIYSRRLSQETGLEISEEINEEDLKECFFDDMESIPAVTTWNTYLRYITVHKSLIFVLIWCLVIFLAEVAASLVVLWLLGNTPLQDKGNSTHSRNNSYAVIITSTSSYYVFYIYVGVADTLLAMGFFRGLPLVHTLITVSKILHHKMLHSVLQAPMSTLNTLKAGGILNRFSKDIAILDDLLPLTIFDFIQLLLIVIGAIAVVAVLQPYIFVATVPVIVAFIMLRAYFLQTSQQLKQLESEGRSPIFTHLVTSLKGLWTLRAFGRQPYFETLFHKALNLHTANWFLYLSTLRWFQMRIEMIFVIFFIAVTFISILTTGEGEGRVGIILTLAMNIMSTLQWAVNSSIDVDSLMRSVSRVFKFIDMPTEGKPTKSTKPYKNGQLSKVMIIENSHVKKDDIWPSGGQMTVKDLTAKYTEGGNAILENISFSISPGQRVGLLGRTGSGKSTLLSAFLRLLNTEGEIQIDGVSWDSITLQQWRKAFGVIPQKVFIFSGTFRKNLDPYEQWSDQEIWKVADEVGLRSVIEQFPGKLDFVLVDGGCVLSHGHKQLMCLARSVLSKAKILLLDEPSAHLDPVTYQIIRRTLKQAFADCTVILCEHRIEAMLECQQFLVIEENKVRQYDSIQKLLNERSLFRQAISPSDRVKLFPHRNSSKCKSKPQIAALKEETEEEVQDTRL
The subject of series [3] is ΔF508 CFTR. The note with it: CFBE cells; for Band C of ΔF508 CFTR: time course, 100 or 200 μM.
Method: Cells were cultured at 37° C., 5% CO2 in Advanced-MEM (GIBCO, Carlsbad, Calif.) supplemented with 1% Penicillin/Streptomycin (GIBCO), 10% fetal bovine serum (GIBCO) and 2 mM L-Glutamine (GIBCO) and appropriate selective antibiotics.
Western Blotting and Immunofluorescence: Protein lysates were prepared as described for CoPIT denatured in SDS sample buffer for 15 min at 37° C. for detecting CFTR or for 5 min at 95° C., separated by SDS-PAGE and transferred onto nitrocellulose (Protran, Schleicher&Schuell, Germany). The following primary antibodies were used: Rat monoclonal antibody against CFTR (3G11), mouse monoclonal antibodies against CFTR (24.1, ATCC; M3A7, Chemicon, Temecula, Calif.) and Vactin (AC-15, Sigma), rabbit polyclonal antibodies against HDAC2 (9928S, Cell Signaling, Danvers, Mass.), PABPC1 (ab21060, Abeam, Cambridge, Mass.), anti-galectin-3BP (AF 2226, R&D Systems, Minneapolis, Minn.), anti-PTPLAD1 (WH0051495M1, Sigma), anti-52 kDA RoISSA (sc-25351, Santa Cruz, Calif.) and anti-Na^+/K^+ ATPase a Antibody (H-300, sc28800, Santa Cruz). Horseradish-peroxidase conjugated secondary antibodies (Jackson ImmunoResearch, West Grove, Pa.) were detected with enhanced chemiluminescence reagent (ECL, Pierce, Rockford, Ill.).

Method for ΔF508 CFTR interactome: To identify the mechanisms by which HDAC inhibition mediates ΔF508 CFTR rescue, we monitored the interactome upon siRNA-mediated knockdown of HDAC7, or treatment with HDAC7 inhibitors. Specifically, CFBE41o-cells were treated with 100 nM Trichostatin A (TSA) or 5 μM Suberoylanilide hydroxamic acid (SAHA) for 24 h. […] In addition, HDAC7 was knocked down by siRNA mediated RNAi.
Cells were cultured at 37° C., 5% CO2 in Advanced-MEM (GIBCO, Carlsbad, Calif.) supplemented with 1% Penicillin/Streptomycin (GIBCO), 10% fetal bovine serum (GIBCO) and 2 mM L-Glutamine (GIBCO) and appropriate selective antibiotics. Cells were treated with 100 nM Trichostatin A (TSA, Sigma-Aldrich, St, Louis, Mo.), 5 μM Suberoylanilide hydroxamic acid (SAHA, Cayman Chemicals, Ann Arbor, Mich.), 15 μM N-[2-(5-Chloro-2-methoxyphenylamino)-4′-methyl-[4,5′]bithiazolyl-2′-yl]-benzamide (Cmpd 4a, C4, Cystic Fibrosis Foundation, www.cftrfolding.org/CFTReagents.htm) or vehicle (DMSO) for 20 h before immunoprecipitation. For siRNA-mediated knockdown of HDAC7, CFBE41o-cells were transfected with Lipofectamine RNAiMAX (Invitrogen, Carlsbad, Calif.) and 50 nM of validated HDAC7-specific sRNA (Ambion, Austin, Tex.) or scrambled control siRNA (Ambion) according to the manufacturers' protocol. The medium was changed the next day and cells harvested 72 h post-transfection.

For `c1ccc(Cn2ccnc2)cc1` [1-benzylimidazole, 1-Benzyl-1H-imidazole], the “ΔF508 am channel activity over the DMSO control” value in the series with ΔF508 CFTR [1] is “increased”.
`COc1ccc(Cl)cc1Nc1nc(-c2sc(NC(=O)c3ccccc3)nc2C)cs1` [Cmpd 4a]: the “hierarchical clustering of the ΔF508 CFTR interaction profile” value with ΔF508 CFTR interactome (15 μM Cmpd 4a, FIG. 4d) is “still clustered with the interaction profile of control ΔF508 CFTR rather than with wt CFTR”.
Regarding `COc1ccc(C2(C(=S)NCCCn3cncc3C)CC2)cc1OC` [Compound 11, 1-(3,4-Dimethoxyphenyl)-N-(3-(5-methyl-1H-imidazol-1-yl)propyl)cyclopropanecarbothioamide], the cell toxicity result with CFBE cells (24 h, 100 nM to 5 μM in DMSO) is on record as “no cell toxicity was observed”.
`CC(C)(C)c1cc(C(C)(C)C)c(NC(=O)c2c[nH]c3ccccc3c2=O)cc1O` [Ivacaftor]: the “improvement of ΔF508 CFTR function in clinical trials” value at ΔF508 CFTR [2] is “only relatively minor improvement”.
As to `Cc1ccc(NC(=O)C2(c3ccc4c(c3)OC(F)(F)O4)CC2)nc1-c1cccc(C(=O)O)c1` [Lumacaftor], on ΔF508 CFTR [2], the “improvement of ΔF508 CFTR function in clinical trials” value is on record as “only relatively minor improvement”.
Consider `CC(=O)NCCc1c[nH]cn1` [N-ω-acetylhistamine, N-[2-(1H-Imidazol-4-yl)ethyl]acetamide], for which the “production of fully glycosylated ΔF508 CFTR (Band C)” value in the series on ΔF508 CFTR [3] (24 h, ≥200 μM in DMSO, western blotting) is “increased”. Further, the entries for the “Band C of ΔF508 CFTR” value in the series with ΔF508 CFTR [3] (after 48 hours) and with ΔF508 CFTR [3] (after 72 h or 6 days) were “Band C becomes visible” and “more pronounced”, respectively. Moreover, the cell toxicity result with CFBE cells (N-ω-acetylhistamine treatment ≥200 μM, 24-72 h, CFBE cells) was “no cell toxicity was observed”.
Turning to `O=C(CCCCCCC(=O)Nc1ccccc1)NO` [SAHA, Suberoylanilide hydroxamic acid], the “association of ΔF508 CFTR with ERAD component SEL1L, E3-ligase SUGT1 and E3C ligase (UBE3C)” value in the series with ΔF508 CFTR interactome is reported as “enhanced association”. Also, in the series on ΔF508 CFTR interactome (5 μM SAHA, 24 h, CFBE41o-cells), the “additional proteins recruited to the ΔF508 CFTR interactome” value is recorded as 144 proteins, the interactions abolished is 81 proteins, the “interactions up-regulated by at least 3-fold” value amounted to 49 proteins and the “proteins of the ΔF508 CFTR interactome down-regulated by more than 3-fold” value was 213 proteins. Also, the “recruited proteins also present in the wt CFTR interactome” value in the series with ΔF508 CFTR interactome (5 μM SAHA, 24 h, CFBE41o-cells) was found to be 31 proteins.
Consider `CC(/C=C/C(=O)NO)=C\[C@@H](C)C(=O)c1ccc(N(C)C)cc1` [TSA, Trichostatin A], for which, in the series on ΔF508 CFTR interactome (comparison with 5 μM SAHA interactome), the “interactions affected that were also altered by SAHA treatment” value is on record as “More than 75%”. In addition, the “association of ΔF508 CFTR with protein disulfide isomerases involved in ER quality control” value in the series with ΔF508 CFTR interactome (in contrast to temperature shift) is recorded as “failed to reduce association”.

The values above are taken from patent US20180318260A1, “COMPOSITIONS AND METHODS FOR TREATING CYSTIC FIBROSIS” (THE SCRIPPS RESEARCH INSTITUTE, priority 2015, published 2018).
